The results in this text go back to ChEMBL document CHEMBL3132769, “Fragment growing to retain or alter the selectivity of anchored kinase hinge-binding fragments” (Medchemcomm, 2014).

For orientation: inhibition means the relative decrease from the control value, in per cent.

For assay [1], the target named is Ribosomal protein S6 kinase alpha-1 (Homo sapiens) (UniProt Q15418). Nature of the assay: Inhibition of human full length RSK1 expressed in baculovirus assessed as substrate phosphorylation using fluorescence-labelled peptides as substrate at 420 uM after 90 mins by microfluidic peptide phosphorylation assay.
Assay [2] concerns the target T1, Aurora kinase A (Homo sapiens) (UniProt O14965).
T1 sequence (whole entry): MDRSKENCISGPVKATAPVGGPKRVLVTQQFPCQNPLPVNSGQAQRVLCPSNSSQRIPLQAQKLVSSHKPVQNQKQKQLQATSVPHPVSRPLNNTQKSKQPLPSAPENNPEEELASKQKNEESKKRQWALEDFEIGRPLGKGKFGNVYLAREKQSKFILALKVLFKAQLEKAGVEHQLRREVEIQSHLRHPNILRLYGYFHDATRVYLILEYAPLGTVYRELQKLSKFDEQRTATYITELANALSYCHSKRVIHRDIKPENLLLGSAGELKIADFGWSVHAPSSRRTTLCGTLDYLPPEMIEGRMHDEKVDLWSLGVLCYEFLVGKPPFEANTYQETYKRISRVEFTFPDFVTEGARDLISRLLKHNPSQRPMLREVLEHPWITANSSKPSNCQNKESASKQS
The note with it: 0.1 uM.
Description: Inhibition of human full length AurA expressed in baculovirus assessed as substrate phosphorylation using fluorescence-labelled peptides as substrate at 0.1 uM after 90 mins by microfluidic peptide phosphorylation assay

Assay [3] concerns the target T2, MAP kinase-activated protein kinase 5 (Homo sapiens) (UniProt Q8IW41).
T2 sequence (whole entry): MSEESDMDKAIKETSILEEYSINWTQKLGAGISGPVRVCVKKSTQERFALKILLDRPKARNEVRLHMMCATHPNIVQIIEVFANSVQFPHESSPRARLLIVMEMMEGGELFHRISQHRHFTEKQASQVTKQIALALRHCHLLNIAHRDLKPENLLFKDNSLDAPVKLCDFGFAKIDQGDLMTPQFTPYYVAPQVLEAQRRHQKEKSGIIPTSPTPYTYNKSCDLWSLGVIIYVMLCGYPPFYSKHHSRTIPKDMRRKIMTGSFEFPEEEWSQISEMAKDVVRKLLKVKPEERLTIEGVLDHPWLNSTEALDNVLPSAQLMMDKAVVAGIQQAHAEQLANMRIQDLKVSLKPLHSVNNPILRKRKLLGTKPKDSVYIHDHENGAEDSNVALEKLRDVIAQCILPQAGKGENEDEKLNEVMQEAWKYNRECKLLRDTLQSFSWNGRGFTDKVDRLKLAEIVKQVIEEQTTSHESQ
The experiment in a line: Inhibition of human full length PRAK expressed in baculovirus assessed as substrate phosphorylation using fluorescence-labelled peptides as substrate at 0.2 uM after 90 mins by microfluidic peptide phosphorylation assay.

Assay [4] deals with T3, cGMP-dependent protein kinase 1 (Homo sapiens) (UniProt Q13976).
T3 sequence (whole entry): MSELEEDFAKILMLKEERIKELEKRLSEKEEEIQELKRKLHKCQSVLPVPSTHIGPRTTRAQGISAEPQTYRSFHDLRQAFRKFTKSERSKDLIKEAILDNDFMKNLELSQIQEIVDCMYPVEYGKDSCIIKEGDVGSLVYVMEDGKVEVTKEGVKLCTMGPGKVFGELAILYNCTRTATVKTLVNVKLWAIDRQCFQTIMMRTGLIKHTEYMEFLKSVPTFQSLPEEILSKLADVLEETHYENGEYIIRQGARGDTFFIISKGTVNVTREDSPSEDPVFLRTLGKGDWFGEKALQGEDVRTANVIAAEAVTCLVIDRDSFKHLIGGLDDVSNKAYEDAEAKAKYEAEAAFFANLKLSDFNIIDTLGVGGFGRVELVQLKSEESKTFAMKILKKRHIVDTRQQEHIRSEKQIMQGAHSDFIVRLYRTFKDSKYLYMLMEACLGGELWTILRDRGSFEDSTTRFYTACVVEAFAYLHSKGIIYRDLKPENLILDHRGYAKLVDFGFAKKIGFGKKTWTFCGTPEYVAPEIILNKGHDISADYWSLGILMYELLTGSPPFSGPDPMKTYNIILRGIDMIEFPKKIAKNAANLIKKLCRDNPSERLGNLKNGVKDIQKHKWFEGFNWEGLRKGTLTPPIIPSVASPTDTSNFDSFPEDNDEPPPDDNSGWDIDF
Nature of the assay: Inhibition of human full length PKG-1a expressed in baculovirus assessed as substrate phosphorylation using fluorescence-labelled peptides as substrate at 9 uM after 90 mins by microfluidic peptide phosphorylation assay.

In assay [5] the target is T4, Serine/threonine-protein kinase Sgk1 (Homo sapiens) (UniProt O00141).
T4 sequence (whole entry): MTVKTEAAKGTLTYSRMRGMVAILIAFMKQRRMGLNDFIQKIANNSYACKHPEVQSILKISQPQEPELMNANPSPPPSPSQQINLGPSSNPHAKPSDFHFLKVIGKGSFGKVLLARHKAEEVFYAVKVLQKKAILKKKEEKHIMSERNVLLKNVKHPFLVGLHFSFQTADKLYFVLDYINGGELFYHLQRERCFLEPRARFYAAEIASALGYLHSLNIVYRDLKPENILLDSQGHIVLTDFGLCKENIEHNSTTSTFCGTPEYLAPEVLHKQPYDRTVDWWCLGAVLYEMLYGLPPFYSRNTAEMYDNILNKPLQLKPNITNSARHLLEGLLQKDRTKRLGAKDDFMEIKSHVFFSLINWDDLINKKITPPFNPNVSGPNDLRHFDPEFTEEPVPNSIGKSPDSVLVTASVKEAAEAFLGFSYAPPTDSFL
The experiment in a line: Inhibition of human truncated SGK1 expressed in baculovirus assessed as substrate phosphorylation using fluorescence-labelled peptides as substrate at 70 uM after 90 mins by microfluidic peptide phosphorylation assay.

Assay [6] has as its target Calcium/calmodulin-dependent protein kinase type II subunit gamma (Homo sapiens) (UniProt Q13555). Nature of the assay: Inhibition of human CAMK2 gamma catalytic domain expressed in baculovirus assessed as substrate phosphorylation using fluorescence-labelled peptides as substrate at 95 uM after 90 mins by microfluidic peptide phosphorylation assay.
The target in assay [7] is Insulin-like growth factor 1 receptor (Homo sapiens) (UniProt P08069). Nature of the assay: Inhibition of human IGF1R catalytic domain expressed in baculovirus assessed as substrate phosphorylation using fluorescence-labelled peptides as substrate at 95 uM after 90 mins by microfluidic peptide phosphorylation assay.
Assay [8] has as its target Ribosomal protein S6 kinase alpha-5 (Homo sapiens) (UniProt O75582). The experiment in a line: Inhibition of human full length MSK1 expressed in baculovirus assessed as substrate phosphorylation using fluorescence-labelled peptides as substrate at 1000 uM after 90 mins by microfluidic peptide phosphorylation assay.
Assay [9] deals with Serine/threonine-protein kinase PAK 2 (Homo sapiens) (UniProt Q13177). The experiment in a line: Inhibition of human truncated PAK2 expressed in Escherichia coli cell assessed as substrate phosphorylation using fluorescence-labelled peptides as substrate at 1000 uM after 90 mins by microfluidic peptide phosphorylation assay.
Assay [10] addresses Rho-associated protein kinase 2 (Homo sapiens) (UniProt O75116). The experiment in a line: Inhibition of human ROCK2 catalytic domain expressed in baculovirus assessed as substrate phosphorylation using fluorescence-labelled peptides as substrate at […] after 90 mins by microfluidic peptide phosphorylation assay.

Chain of Ribosomal protein S6 kinase alpha-1 (Homo sapiens) (Q15418 whole entry): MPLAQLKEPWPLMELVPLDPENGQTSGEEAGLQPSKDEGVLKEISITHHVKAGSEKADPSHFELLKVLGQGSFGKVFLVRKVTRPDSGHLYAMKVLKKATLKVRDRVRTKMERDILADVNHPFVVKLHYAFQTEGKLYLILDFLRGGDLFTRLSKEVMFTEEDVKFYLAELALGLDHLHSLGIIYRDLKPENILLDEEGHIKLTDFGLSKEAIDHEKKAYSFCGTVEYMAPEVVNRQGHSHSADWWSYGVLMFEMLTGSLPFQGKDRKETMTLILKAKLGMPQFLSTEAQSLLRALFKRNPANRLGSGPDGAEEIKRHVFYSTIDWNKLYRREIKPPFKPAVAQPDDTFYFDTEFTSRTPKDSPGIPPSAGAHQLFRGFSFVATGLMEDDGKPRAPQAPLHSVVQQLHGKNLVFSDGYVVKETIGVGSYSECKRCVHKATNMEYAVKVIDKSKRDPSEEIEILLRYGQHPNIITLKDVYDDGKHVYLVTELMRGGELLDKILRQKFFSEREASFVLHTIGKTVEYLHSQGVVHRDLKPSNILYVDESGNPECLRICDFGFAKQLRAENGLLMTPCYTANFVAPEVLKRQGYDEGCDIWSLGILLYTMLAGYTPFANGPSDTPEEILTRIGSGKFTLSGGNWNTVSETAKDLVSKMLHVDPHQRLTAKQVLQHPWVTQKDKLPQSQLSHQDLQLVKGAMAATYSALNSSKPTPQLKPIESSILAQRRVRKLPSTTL
Chain of Rho-associated protein kinase 2 (Homo sapiens) (O75116 whole entry, looked up, the tested form may be a part): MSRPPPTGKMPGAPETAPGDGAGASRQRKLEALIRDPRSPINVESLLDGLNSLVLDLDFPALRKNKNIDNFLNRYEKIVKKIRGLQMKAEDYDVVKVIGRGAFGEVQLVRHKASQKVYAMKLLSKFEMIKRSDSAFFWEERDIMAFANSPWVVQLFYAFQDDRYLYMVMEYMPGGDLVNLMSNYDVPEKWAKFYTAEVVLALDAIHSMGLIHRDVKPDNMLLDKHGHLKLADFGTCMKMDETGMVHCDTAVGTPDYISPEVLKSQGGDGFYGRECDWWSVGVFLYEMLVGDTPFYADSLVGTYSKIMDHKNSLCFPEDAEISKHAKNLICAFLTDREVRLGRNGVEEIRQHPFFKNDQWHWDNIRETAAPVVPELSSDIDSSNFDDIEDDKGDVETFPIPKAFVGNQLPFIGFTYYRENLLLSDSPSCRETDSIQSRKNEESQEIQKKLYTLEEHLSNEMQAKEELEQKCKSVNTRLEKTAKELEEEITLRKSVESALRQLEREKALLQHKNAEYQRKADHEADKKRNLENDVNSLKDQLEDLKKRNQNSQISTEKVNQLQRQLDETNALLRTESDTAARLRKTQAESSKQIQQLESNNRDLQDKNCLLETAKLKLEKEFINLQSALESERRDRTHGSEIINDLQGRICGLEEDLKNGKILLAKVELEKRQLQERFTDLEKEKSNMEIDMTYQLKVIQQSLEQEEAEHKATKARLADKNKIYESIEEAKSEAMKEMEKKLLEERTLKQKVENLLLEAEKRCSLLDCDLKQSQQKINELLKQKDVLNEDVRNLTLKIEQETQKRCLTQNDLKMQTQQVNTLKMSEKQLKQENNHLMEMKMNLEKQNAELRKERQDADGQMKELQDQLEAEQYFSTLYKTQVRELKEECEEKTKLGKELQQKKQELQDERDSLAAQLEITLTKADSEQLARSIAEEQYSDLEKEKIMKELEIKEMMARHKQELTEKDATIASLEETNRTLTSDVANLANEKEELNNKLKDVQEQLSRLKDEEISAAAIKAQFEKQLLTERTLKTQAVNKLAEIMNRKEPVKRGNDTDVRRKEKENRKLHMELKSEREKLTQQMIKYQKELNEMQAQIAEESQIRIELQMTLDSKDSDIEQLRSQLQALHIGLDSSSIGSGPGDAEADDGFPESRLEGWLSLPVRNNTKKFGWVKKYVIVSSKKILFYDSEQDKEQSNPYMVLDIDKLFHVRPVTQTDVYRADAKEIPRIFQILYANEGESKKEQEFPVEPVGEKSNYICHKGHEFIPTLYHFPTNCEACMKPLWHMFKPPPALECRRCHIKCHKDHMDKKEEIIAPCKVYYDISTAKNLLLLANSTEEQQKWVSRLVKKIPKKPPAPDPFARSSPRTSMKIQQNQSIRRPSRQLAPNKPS
Chain of Calcium/calmodulin-dependent protein kinase type II subunit gamma (Homo sapiens) (Q13555 whole entry, the tested form may be a part): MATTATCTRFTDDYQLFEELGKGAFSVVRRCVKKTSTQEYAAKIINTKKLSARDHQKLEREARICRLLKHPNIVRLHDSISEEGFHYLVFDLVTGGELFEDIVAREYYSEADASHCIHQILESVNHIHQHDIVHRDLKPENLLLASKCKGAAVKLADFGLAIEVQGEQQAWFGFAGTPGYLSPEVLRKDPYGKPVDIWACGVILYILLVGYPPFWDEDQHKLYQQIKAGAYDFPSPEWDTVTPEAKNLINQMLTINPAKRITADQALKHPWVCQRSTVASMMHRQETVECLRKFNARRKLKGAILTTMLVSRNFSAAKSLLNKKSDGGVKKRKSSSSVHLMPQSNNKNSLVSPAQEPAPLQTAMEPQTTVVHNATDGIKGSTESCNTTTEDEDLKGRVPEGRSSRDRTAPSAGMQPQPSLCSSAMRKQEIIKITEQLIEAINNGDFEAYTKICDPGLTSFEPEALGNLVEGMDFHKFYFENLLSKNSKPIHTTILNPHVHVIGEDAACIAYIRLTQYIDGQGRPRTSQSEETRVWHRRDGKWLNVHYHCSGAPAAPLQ
Chain of Serine/threonine-protein kinase PAK 2 (Homo sapiens) (Q13177 whole entry, the tested form may be a part): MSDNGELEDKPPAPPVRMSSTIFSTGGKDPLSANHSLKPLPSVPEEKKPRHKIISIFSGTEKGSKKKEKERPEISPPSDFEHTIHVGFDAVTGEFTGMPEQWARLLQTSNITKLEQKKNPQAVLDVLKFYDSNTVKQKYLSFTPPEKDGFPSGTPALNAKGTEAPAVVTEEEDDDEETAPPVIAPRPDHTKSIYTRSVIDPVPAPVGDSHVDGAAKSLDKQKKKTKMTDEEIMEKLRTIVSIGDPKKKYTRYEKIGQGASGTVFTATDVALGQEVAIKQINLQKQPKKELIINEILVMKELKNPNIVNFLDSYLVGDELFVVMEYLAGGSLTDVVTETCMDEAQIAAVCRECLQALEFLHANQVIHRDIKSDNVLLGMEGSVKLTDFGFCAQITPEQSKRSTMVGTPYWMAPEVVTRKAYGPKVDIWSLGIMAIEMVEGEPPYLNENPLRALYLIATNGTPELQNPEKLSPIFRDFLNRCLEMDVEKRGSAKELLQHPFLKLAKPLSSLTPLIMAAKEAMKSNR
Chain of Ribosomal protein S6 kinase alpha-5 (Homo sapiens) (O75582 whole entry, looked up, the tested form may be a part): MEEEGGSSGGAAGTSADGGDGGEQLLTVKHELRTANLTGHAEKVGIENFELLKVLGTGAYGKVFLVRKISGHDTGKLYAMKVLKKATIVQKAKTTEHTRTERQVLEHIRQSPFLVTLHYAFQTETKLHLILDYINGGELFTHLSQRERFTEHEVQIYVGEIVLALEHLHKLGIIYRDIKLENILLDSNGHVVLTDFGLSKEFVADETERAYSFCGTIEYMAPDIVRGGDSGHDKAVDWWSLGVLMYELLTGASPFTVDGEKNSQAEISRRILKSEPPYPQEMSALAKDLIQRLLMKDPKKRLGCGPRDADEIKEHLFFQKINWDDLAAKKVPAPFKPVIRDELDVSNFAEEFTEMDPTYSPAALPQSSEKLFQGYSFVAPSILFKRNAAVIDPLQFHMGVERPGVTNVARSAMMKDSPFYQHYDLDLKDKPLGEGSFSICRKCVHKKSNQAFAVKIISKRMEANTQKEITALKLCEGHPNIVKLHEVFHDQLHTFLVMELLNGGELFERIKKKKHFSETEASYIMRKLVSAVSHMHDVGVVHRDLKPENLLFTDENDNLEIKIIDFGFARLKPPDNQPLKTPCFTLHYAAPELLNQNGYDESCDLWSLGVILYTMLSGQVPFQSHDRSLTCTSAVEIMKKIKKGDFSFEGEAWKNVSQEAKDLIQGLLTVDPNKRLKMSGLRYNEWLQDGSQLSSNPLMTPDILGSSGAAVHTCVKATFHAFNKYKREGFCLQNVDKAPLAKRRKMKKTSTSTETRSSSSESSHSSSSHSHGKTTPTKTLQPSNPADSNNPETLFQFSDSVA

Consider `c1nc(N2CCOCC2)c2nc[nH]c2n1`, for which the inhibition in [1] stood at 87%. In assay [2], `C[C@H](CN(C)C)Oc1nc(Nc2cc3cccc(Cl)c3cn2)cnc1C#N` returned an inhibition of 0%. For the compound `Clc1ccc(C2(c3ccc(-c4ncnc5[nH]cnc45)cc3)CCNCC2)cc1`, in [3], the inhibition amounted to 8.5%. `NCC1CN(c2ncnc3[nH]c4cnccc4c23)CCO1` (stereo not given): the inhibition in [4] was found to be 15.5%. Take `CNCc1ccc(-c2ncnc3[nH]cnc23)cc1`: the inhibition in assay [5] amounted to 48%. For `NCCc1ccc(-c2ncnc3[nH]cnc23)cc1`, the inhibition was 30% in assay [6] and 20.5% in assay [7].

Consider `c1cnc2[nH]ccc2c1`, for which the inhibition in assay [8] is 87%; in [9], 13.5%. As for `COC(=O)c1cnc(Nc2cnc(C#N)cn2)cc1NCC1CCNCC1`, in assay [10], the inhibition stood at 2%.
